Test [1] deals with NAMPT (human, recombinant, C-terminally His-tagged) (Homo sapiens, UniProt P43490). Nature of the test: Time-Resolved Fluorescence Resonance Energy Transfer (TR-FRET) Binding Assay of NAMPT. The note with it: without substrates; 6.8 nM NAMPT, 200 nM probe, 3 hours equilibration. The procedure, abridged: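 Probe displacement by compound was measured with 6.8 nM NAMPT, 200 nM Oregon Green 488-conjugated nicotinamide-competitive inhibitor probe and 1 nM Tb-anti-His antibody in 50 mM HEPES pH 7.5, 100 mM NaCl, 10 mM MgCl2, 1 mM DTT, 1% glycerol, 2% DMSO (final). After 3 h at room temperature, TR-FRET was read; IC50 from four-parameter logistic fit.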
NAMPT (human, recombinant, C-terminally His-tagged), sequence (P43490 whole entry): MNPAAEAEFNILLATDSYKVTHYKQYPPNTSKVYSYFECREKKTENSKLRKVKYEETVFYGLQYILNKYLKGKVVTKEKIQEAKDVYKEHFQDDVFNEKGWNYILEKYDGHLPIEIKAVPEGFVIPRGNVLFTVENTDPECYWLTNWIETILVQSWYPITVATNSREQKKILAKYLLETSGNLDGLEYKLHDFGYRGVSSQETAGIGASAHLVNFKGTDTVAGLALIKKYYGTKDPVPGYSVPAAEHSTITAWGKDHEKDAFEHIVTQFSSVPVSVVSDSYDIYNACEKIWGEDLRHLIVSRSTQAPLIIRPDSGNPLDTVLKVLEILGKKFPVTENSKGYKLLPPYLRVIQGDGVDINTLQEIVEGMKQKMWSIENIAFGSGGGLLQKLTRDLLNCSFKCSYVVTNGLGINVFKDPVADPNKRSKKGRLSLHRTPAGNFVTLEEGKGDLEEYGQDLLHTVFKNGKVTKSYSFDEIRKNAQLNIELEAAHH
(In general: In TR-FRET formats the signal depends on donor and acceptor labels being close together.)

Test [2] concerns the target NAMPT (Homo sapiens, UniProt P43490). The test can be described thus: TR-FRET Binding Assay of NAMPT with PRPP. To be noted: with 200 μM PRPP and 2.5 mM ATP; 2 nM NAMPT, 2 nM probe, 16 hours equilibration. The procedure, abridged: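 Run in the presence of substrates (200 μM PRPP, 2.5 mM ATP) with final 2 nM NAMPT, 2 nM probe, 1 nM Tb-anti-His antibody and 2% DMSO. Mixtures equilibrated 16 h before TR-FRET measurement so test compounds could be enzymatically modified.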

In test [3] the test system is PC3 cells. The test can be described thus: NAMPT Cell Proliferation Assay. The class given is cell-based. The note with it: Homo sapiens, PC-3, 120 h, 5 days incubation, cell viability by Cell Titer Glo. An outline of the steps:
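PC3 cells were plated at 500 cells/well in RPMI with 10% heat-inactivated FBS, left to attach overnight, then given compounds in 10-fold dilutions from 10 μM to 1×10^−5 μM. After 5 days at 37° C and 5% CO2, viability was read by luminescence and IC50s came from sigmoidal fits of percent inhibition.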
In general terms: Cellular ATP, detected with luciferase, serves as a proxy for viable cell number.

The structures appear in SMILES notation. pIC50: −log10 of the molar value.

NAMPT, sequence (P43490 whole entry): as above

In general, pIC50 refers to the IC50 on a negative log10 scale, so that one unit is a factor of ten. In the case of `CCC(C)(C)C(=O)N1CCC(c2ccc(C(=O)NCc3ccn4ccnc4c3)cc2)C1` (stereo not drawn) [Example 598, 4-[1-(2,2-dimethylbutanoyl)pyrrolidin-3-yl]-N-(imidazo[1,2-a]pyridin-7-ylmethyl)benzamide], the pIC50 in test [1] was 6.34; in test [2], 9.09; in test [3], 7.78.

As to `CC(C)(O)C(=O)N1CCC(Oc2ccc(NC(=O)NCc3ccn4ccnc4c3)cc2)CC1` [Example 447, 1-(4-{[1-(2-hydroxy-2-methylpropanoyl)piperidin-4-yl]oxy}phenyl)-3-(imidazo[1,2-a]pyridin-7-ylmethyl)urea], the pIC50 is 6.58 in test [1], 9.63 in test [2] and 7.90 in test [3].

Take `O=C(NCc1ccn2ccnc2c1)c1ccc(C2CCN(S(=O)(=O)C3CC3)CC2)cc1` [Example 684, 4-[1-(cyclopropylsulfonyl)piperidin-4-yl]-N-(imidazo[1,2-a]pyridin-7-ylmethyl)benzamide]: the pIC50 in test [1] was 6.32; in test [2] it was 8.87; in test [3] it was 6.49.

As to `O=C(NCc1ccn2ccnc2c1)c1ccc(C2CN(C(=O)c3nccs3)C2)cc1` [Example 664, N-(imidazo[1,2-a]pyridin-7-ylmethyl)-4-[1-(1,3-thiazol-2-ylcarbonyl)azetidin-3-yl]benzamide], the pIC50 in test [1] was 6.67; in test [2], 9.13; in test [3], 7.15.

For `O=C(NCc1ccn2ccnc2c1)c1ccc(C2CCN(C(=O)CCC(F)(F)F)C2)s1` (stereo not drawn) [Example 796, N-(imidazo[1,2-a]pyridin-7-ylmethyl)-5-[1-(4,4,4-trifluorobutanoyl)pyrrolidin-3-yl]thiophene-2-carboxamide], the results for the pIC50 in test [1], in test [2] and in test [3] were 7.04, 9.31 and 8.33, respectively.

With `O=C(NCc1ccn2ccnc2c1)c1ccc(C2CN(C(=O)c3ccncn3)C2)cc1` [Example 663, N-(imidazo[1,2-a]pyridin-7-ylmethyl)-4-[1-(pyrimidin-4-ylcarbonyl)azetidin-3-yl]benzamide], the pIC50 was 6.19 in test [1], 8.97 in test [2] and 7.05 in test [3].

`O=C(NCCCCC1CCN(C(=O)C2CCOC2)CC1)Nc1ccc2nccn2c1` (stereo not drawn) [Example 72, 1-imidazo[1,2-a]pyridin-6-yl-3-{4-[1-(tetrahydrofuran-3-ylcarbonyl)piperidin-4-yl]butyl}urea]: the results for the pIC50 in test [1], in test [2] and in test [3] were 6.07, 9.27 and 7.18, respectively.

In the case of `O=C(NCc1ccn2ccnc2c1)Nc1ccc(C2CN(C(=O)c3ccccc3)C2)cc1` [Example 455, 1-[4-(1-benzoylazetidin-3-yl)phenyl]-3-(imidazo[1,2-a]pyridin-7-ylmethyl)urea], the pIC50 in test [1] is 7.78; in test [2], 9.71; in test [3], 8.46.

Consider `O=C(NCc1ccn2ccnc2c1)Nc1ccc(OC2CCN(C(=O)[C@H]3CCCO3)CC2)cc1` [Example 448, 1-(imidazo[1,2-a]pyridin-7-ylmethyl)-3-[4-({1-[(2R)-tetrahydrofuran-2-ylcarbonyl]piperidin-4-yl}oxy)phenyl]urea], for which the pIC50 in test [1] is 6.76; in test [2], 9.75; in test [3] it was 7.17.

As to `Cc1ccsc1C(=O)N1CC(c2ccc(C(=O)NCc3ccn4ccnc4c3)cc2)C1` [Example 670, N-(imidazo[1,2-a]pyridin-7-ylmethyl)-4-{1-[(3-methylthiophen-2-yl)carbonyl]azetidin-3-yl}benzamide], the pIC50 in test [1] is 7.21; in test [2], 9.26; in test [3] it was 8.00.

For the compound `CC1CC1C(=O)N1CCC(c2ccc(NC(=O)NCc3ccn4ccnc4c3)cc2)CC1` (stereo not drawn) [Example 711, 1-(imidazo[1,2-a]pyridin-7-ylmethyl)-3-(4-{1-[(2-methylcyclopropyl)carbonyl]piperidin-4-yl}phenyl)urea], the values for the pIC50 in test [1], in test [2] and in test [3] were 7.05, 8.95 and 8.49, respectively.

`O=C(NCc1cn2ccnc2cn1)c1ccc(C2CCN(C(=O)c3ccccc3F)CC2)cc1` [Example 826, 4-[1-(2-fluorobenzoyl)piperidin-4-yl]-N-(imidazo[1,2-a]pyrazin-6-ylmethyl)benzamide]: the results for the pIC50 in test [1], in test [2] and in test [3] were 8.11, 9.05 and 8.17, respectively.

For the compound `O=C(NCc1ccn2ccnc2c1)Nc1ccc(C2CCN(C(=O)CC3CCCO3)CC2)cc1` (stereo not drawn) [Example 225, 1-(imidazo[1,2-a]pyridin-7-ylmethyl)-3-{4-[1-(tetrahydrofuran-2-ylacetyl)piperidin-4-yl]phenyl}urea], the pIC50 in test [1] was 6.81; in test [2] it was 9.17; in test [3] it was 8.03.

On to `O=C(NCc1ccn2ccnc2c1)c1ccc(C2CN(C(=O)c3cccnc3)C2)cc1` [Example 659, N-(imidazo[1,2-a]pyridin-7-ylmethyl)-4-[1-(pyridin-3-ylcarbonyl)azetidin-3-yl]benzamide], for which the pIC50 in test [1] was 6.19; in test [2], 9.15; in test [3] it was 6.65.

Regarding `O=C(NCc1ccn2ccnc2c1)c1ccc(C2CCN(C(=O)c3ccncc3)CC2)cc1` [Example 535, N-(imidazo[1,2-a]pyridin-7-ylmethyl)-4-[1-(pyridin-4-ylcarbonyl)piperidin-4-yl]benzamide], the pIC50 in test [1] is 6.53; in test [2], 9.49; in test [3] it was 7.55.

On to `O=C(NCc1ccc2nccn2c1)c1ccc(C2=CCN(C(=O)CC3CCOC3)CC2)cc1` (stereo not drawn) [Example 94, N-(imidazo[1,2-a]pyridin-6-ylmethyl)-4-[1-(tetrahydrofuran-3-ylacetyl)-1,2,3,6-tetrahydropyridin-4-yl]benzamide], for which the figures for the pIC50 in test [1], in test [2] and in test [3] were 6.54, 9.23 and 7.85, respectively.

For the compound `CC(C)C(=O)N1CC[C@@H](Oc2ccc(NC(=O)NCc3ccn4ccnc4c3)cc2)C1` [Example 330, 1-(imidazo[1,2-a]pyridin-7-ylmethyl)-3-(4-{[(3R)-1-(2-methylpropanoyl)pyrrolidin-3-yl]oxy}phenyl)urea], the pIC50 in test [1] is 6.49; in test [2] it was 9.36; in test [3], 7.64.

Turning to `O=C(NCc1ccn2ccnc2c1)Nc1ccc(C2CCN(C(=O)c3cc(F)ccc3F)CC2)cc1` [Example 725, 1-{4-[1-(2,5-difluorobenzoyl)piperidin-4-yl]phenyl}-3-(imidazo[1,2-a]pyridin-7-ylmethyl)urea], the pIC50 in test [1] was 7.71; in test [2], 9.13; in test [3], 8.22.

With `CC(C)C(=O)N1CC(Oc2ccc(NC(=O)NCc3ccn4ccnc4c3)cc2)C1` [Example 425, 1-(imidazo[1,2-a]pyridin-7-ylmethyl)-3-(4-{[1-(2-methylpropanoyl)azetidin-3-yl]oxy}phenyl)urea], the pIC50 in test [1] was 6.82; in test [2], 9.64; in test [3], 7.16.

As to `O=C(NCc1ccn2ccnc2c1)Nc1ccc(C2CN(C(=O)CC3CC3)C2)cc1` [Example 454, 1-{4-[1-(cyclopropylacetyl)azetidin-3-yl]phenyl}-3-(imidazo[1,2-a]pyridin-7-ylmethyl)urea], the pIC50 in test [1] was 6.39; in test [2], 9.47; in test [3] it was 7.37.

The values above are taken from patent US9187472B2 (AbbVie Inc., priority 2012, dated 2015).
